Measured values taken from article PMC10645073, “Interaction of gallium, indium and vanadyl diacetylcurcumin complexes with lysozyme: mechanistic aspects and evaluation of antiamyloidogenic activity” (Royal Society Open Science, 2023).

Legend:
[1] = target: T1, hen egg white lysozyme (HEWL) (Gallus gallus, UniProt P00698); assay: Intrinsic fluorescence quenching of HEWL (Stern-Volmer, double logarithmic and van't Hoff analysis); type: binding; conditions: for KSV (Stern-Volmer quenching constant): HEWL 3 µM; for kq (bimolecular quenching rate constant): kq = KSV/τ0, τ0 10^−8 s; for blue shift of HEWL emission maximum on quenching: excitation 295 nm, emission maximum 345 nm; for fluorescence quenching mechanism: from KSV versus temperature and kq; for main forces / modes of interaction stabilizing the bioconjugate: from signs of ΔH^0 and ΔS^0; for binding constant, order of magnitude: summary of table 1; for ΔH^0 (enthalpy change of binding) / ΔS^0 (entropy change of binding): van't Hoff plot over 293–308 K
T1 construct: whose 129 amino acid residues are linked together by four disulfide bridges to form a single polypeptide chain; purchased Sigma-Aldrich L6876; host or cells: hen egg white (natural source, per the protein's name)
T1 sequence (P00698 19-147): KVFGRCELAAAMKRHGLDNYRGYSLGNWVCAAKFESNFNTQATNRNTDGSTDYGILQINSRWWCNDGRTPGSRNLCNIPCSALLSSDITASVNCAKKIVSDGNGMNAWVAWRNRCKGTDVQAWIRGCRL
Description: The intrinsic fluorescence spectra of HEWL (3 µM) in the absence and presence of Ga(DAC)3, In(DAC)3 and VO(DAC)2 complexes were collected using a Varian Cary Eclipse fluorescence spectrophotometer equipped with a 10 mm quartz cell by adjusting the excitation wavelength to 295 nm and setting the width of both excitation and emission slits at 5 nm. After adding the mentioned concentrations of the metal complexes of diacetylcurcumin to HEWL solution, the samples were scanned in the wavelength range of 300–500 nm. Corrections were made for the inner filter effect on the fluorescence spectra according to the following equation: Fcor=Fobs×10^(Aex+Aem)/2, where Fcor is corrected fluorescence intensity, Fobs is the observed (uncorrected) fluorescence intensity, Aex is the absorbance at the fluorescence excitation wavelength and Aem is the absorbance at the selected fluorescence emission wavelength.
The fluorescence quenching process of HEWL in the presence of three metal complexes of diacetylcurcumin can be quantified according to the well-known Stern-Volmer equation:3.1 F0/F=1+KSV[Q]=1+kqτ0[Q],
where F0 and F represent the intrinsic emission intensities of HEWL fluorophores, respectively, in the absence and presence of the metal complexes of diacetylcurcumin, and [Q] is the molar concentration of quencher. KSV, kq and τ0 denote the Stern-Volmer quenching constant, bimolecular quenching rate constant, and the average lifetime of fluorophore without quencher, respectively. The value of KSV, as a parameter of the sensitivity of the fluorophore to a quencher, can be estimated from the slope of the linear plot of F0/F as a function of [Q] (figure 2d,e,f; electronic supplementary material, figure S1). To obtain more accurate quantification of fluorescence data, the total area of the emission fluorescence peaks (S0 and S) was applied instead of the emission fluorescence intensities (F0 and F). The fluorescence quenching phenomenon can be generally divided into two distinct classes: static quenching and dynamic quenching. Owing to the reciprocal and direct correlations between the KSV parameter and temperature, respectively, for static and dynamic quenching, the observed trend in the KSV value versus temperature can be used to distinguish these mechanisms from each other. In dynamic quenching, an increase in temperature leads to faster diffusion of molecules by which weakly bound nonfluorescent complexes are further dissociated, and the value of KSV increases. From the data recorded in table 1, it can be seen that the KSV value of HEWL/Ga(DAC)3 and HEWL/In(DAC)3 systems decreases as temperature increases, while it increases with increasing temperature for the HEWL/VO(DAC)2 system. […] Considering a lifetime value of 10^−8 s for the native fluorophores, [27] the equation kq = KSV/τ0 gives the kq values greater than the diffusion-limited quenching value of 2.0 × 10 ^+ 10 M^−1 s^−1 for all systems.
Assuming that all the binding sites of HEWL are identical and independent and an equilibrium interaction is established between HEWL and each of the metal complexes of diacetylcurcumin, the fluorescence quenching process can be further analysed by the following double logarithmic equation:3.2 log(F0−F/F)=logKb+nlog[Q], where Kb and n represent the binding constant and number of binding sites on each HEWL molecule, respectively. Plotting log[(F0 − F)/F] versus log[Q] produces a straight line whose slope and intercept can be used respectively to estimate the values of n and Kb (electronic supplementary material, figures S2A, S2B, S2C and S3). […] In other words, the resulting bioconjugates are the product of the interaction between HEWL and the metal complexes of diacetylcurcumin with a 1 : 1 stoichiometry. […]

mouse lymphoma cells = system: mouse lymphoma cells; set-up: method as in PMID 16171869; conditions: read-out: IC50 cytotoxicity; cited from earlier work
HEWL amyloid fibrils = target: T2, HEWL amyloid fibrils (Gallus gallus, UniProt P00698); assay: Thioflavin T fluorescence assay of HEWL amyloid fibrillation; type: biochemical, hen; conditions: HEWL 70 µM, complex 10 µM; for effect on amyloid fibrillation of HEWL (ThT fluorescence): pH 2.0, 140 min incubation
T2 construct: whose 129 amino acid residues are linked together by four disulfide bridges to form a single polypeptide chain; purchased Sigma-Aldrich L6876; host or cells: hen egg white (natural source, per the protein's name)
T2 sequence (P00698 19-147): as above
Description: To prepare HEWL amyloid fibrils, a solution of the protein (5 ml, 70 µM) was prepared in 100 mM PBS, and the pH adjusted to 2.0 using hydrochloric acid. The solution was then incubated in a shaker incubator bath at 450 rpm and 58°C for 140 min. To investigate the effect of the diacetylcurcumin-based metal complexes on HEWL amyloid fibrillation, three separate samples, each containing HEWL (70 µM) and one of the metal complexes of diacetylcurcumin (10 µM), were prepared and incubated under the above conditions.
For ThT assay, a 17 µl volume of the incubated HEWL (70 µM) samples was added to 983 µl of ThT solution for the final HEWL and ThT concentrations of 1.2 µM and 20 µM, respectively. ThT spectra containing the incubated HEWL/metal complexes were recorded 5 min after recording the spectrum of ThT solution as control solution. All spectra were recorded using a Varian Cary Eclipse fluorescence spectrophotometer at 25°C. ThT solution was excited with a 440 nm wavelength and emission fluorescence spectra were recorded in the wavelength range of 450–600 nm.
Enhancement of ThT fluorescence intensity upon its rapid and strong binding to the cross β-sheet structure of amyloid fibrils is important evidence to confirm the amyloid fibril formation of proteins. The inhibitory activities of Ga(DAC)3, In(DAC)3 and VO(DAC)2 complexes on the amyloid fibrillation process of HEWL were explored by ThT fluorescence assay over 140 min period of incubation at pH 2.0. The kinetics of the fibrillation process in the absence and presence of the considered complexes is depicted in figure 4a.
To estimate the lag time and apparent rate constant for growth of fibrils, the following equation was employed on the ThT fluorescence data: F=Fmin+Fmax/1+e^−(t−t0/τ),
where F is the fluorescence intensity in t, Fmin and Fmax are fluorescence intensities in initial time and saturation phase, respectively, t is incubation time and t0 is required time to get 50% of maximal fluorescence intensity. The apparent rate constant, kapp, is given by 1/τ and the lag time is approximated by t0 − 2τ. […]

Row | n (number of binding sites on each HEWL molecule) ([1]; T 293 K) | ΔG^0 (Gibbs free energy change of binding) ([1]; T 293 K) | KSV (Stern-Volmer quenching constant) ([1]; T 293 K) | kq (bimolecular quenching rate constant) ([1]; T 293 K) | n (number of binding sites on each HEWL molecule) ([1]; T 303 K) | ΔG^0 (Gibbs free energy change of binding) ([1]; T 303 K) | KSV (Stern-Volmer quenching constant) ([1]; T 303 K) | kq (bimolecular quenching rate constant) ([1]; T 303 K) | n (number of binding sites on each HEWL molecule) ([1]; T 308 K) | ΔG^0 (Gibbs free energy change of binding) ([1]; T 308 K) | KSV (Stern-Volmer quenching constant) ([1]; T 308 K) | kq (bimolecular quenching rate constant) ([1]; T 308 K) | blue shift of HEWL emission maximum on quenching [1] | binding constant, order of magnitude [1] | ΔH^0 (enthalpy change of binding) [1] | ΔS^0 (entropy change of binding) [1] | effect on amyloid fibrillation of HEWL (ThT fluorescence) (HEWL amyloid fibrils) | Structure (SMILES) | fluorescence quenching mechanism [1] | main forces / modes of interaction stabilizing the bioconjugate [1] | IC50 (mouse lymphoma cells) | further results
1 | (1.26 ± 0.01) | -8.368 ± 0.0024 kcal/mol | (0.10 ± 0.00) × 10^+6 M^−1 | (0.10 ± 0.00) × 10^+14 M^−1 s^−1 | (1.25 ± 0.04) | -8.65 ± 0.0024 kcal/mol | (9.61 ± 0.10) × 10^+5 M^−1 | (9.61 ± 0.10) × 10^+13 M^−1 s^−1 | (1.25 ± 0.02) | -8.788 ± 0.0024 kcal/mol | (1.04 ± 0.02) × 10^+5 M^−1 | (1.04 ± 0.02) × 10^+13 M^−1 s^−1 | 4 nm | 10^+6 M^−1 | -0.148 ± 0 kcal/mol | 117.38 ± 0.01 J mol^−1 K^−1 | considerable delaying effect | COc1cc(C=CC(=O)C=C([O-])C=Cc2ccc(OC(C)=O)c(OC)c2)ccc1OC(C)=O.COc1cc(C=CC(=O)C=C([O-])C=Cc2ccc(OC(C)=O)c(OC)c2)ccc1OC(C)=O.COc1cc(C=CC(=O)C=C([O-])C=Cc2ccc(OC(C)=O)c(OC)c2)ccc1OC(C)=O.[In+3] [In(DAC)3, indium diacetylcurcumin] | static mechanism | electrostatic interactions | 20 to 25 µM | effect on lag time and t0 of fibrillation (HEWL amyloid fibrils; pH 2.0): significant increase in the lag time and t0
2 | (1.35 ± 0.04) | -8.217 ± 0.858 kcal/mol | (2.70 ± 0.02) × 10^+4 M^−1 | (2.70 ± 0.02) × 10^+12 M^−1 s^−1 | (0.93 ± 0.02) | -5.767 ± 0.858 kcal/mol | (2.78 ± 0.03) × 10^+4 M^−1 | (2.78 ± 0.03) × 10^+12 M^−1 s^−1 | (0.75 ± 0.04) | -4.543 ± 0.858 kcal/mol | (2.80 ± 0.02) × 10^+4 M^−1 | (2.80 ± 0.02) × 10^+12 M^−1 s^−1 | 2 nm | 10^+6 to 10^+3 M^−1 | -79.988 ± 0.246 kcal/mol | −1024.87 ± 3.44 J mol^−1 K^−1 | highest inhibitory effect | COc1cc(/C=C/C(=O)C=C([O-])/C=C/c2ccc(OC(C)=O)c(OC)c2)ccc1OC(C)=O.COc1cc(/C=C/C(=O)C=C([O-])/C=C/c2ccc(OC(C)=O)c(OC)c2)ccc1OC(C)=O.[O]=[V+2] [VO(DAC)2, vanadyl diacetylcurcumin] | dual mechanism, including both static and dynamic quenching | van der Waals interactions and hydrogen bonds | 7 to 10 µM | n (number of binding sites on each HEWL molecule) ([1]; T 298 K): (1.15 ± 0.03); ΔG^0 (Gibbs free energy change of binding) ([1]; T 298 K): -6.993 ± 0.858 kcal/mol; KSV (Stern-Volmer quenching constant) ([1]; T 298 K): (2.70 ± 0.04) × 10^+4 M^−1; kq (bimolecular quenching rate constant) ([1]; T 298 K): (2.70 ± 0.04) × 10^+12 M^−1 s^−1
